# Laboratory results from US12377112B2, “Methods of treating neurocognitive disorders, chronic pain and reducing inflammation” (priority 2019, dated 2025).
# Marks after values point to notes of the source that are not given here.
# How the values were obtained:
# mice = assay: Haloperidol-induced catalepsy model; format: in vivo, mouse; settings: for Haloperidol-induced catalepsy (significantly reduced): FIG. 17 (24 hours after administration)
# Method: The potential anti-akinetic effect of psilocybin in mice was investigated. Psilocybin (1 mg/kg, 3 mg/kg, or 10 mg/kg), chlorstyril caffeine (CSC), or vehicle was administered one hour, 24 hours, or one week prior to administration of haloperidol.
# After administration of haloperidol, a catalepsy test was administered to each mouse. During the test, the forelimbs of the mice were placed on a catalepsy apparatus. The latency time was defined as the time necessary for the mouse to put the forelimbs on the table. The cut off time was set as 3 minutes. Catalepsy was evaluated every 45 minutes for 270 minutes after the Haloperidol injection.
# male C57BL/6 mice = assay: Chronic constriction injury (CCI) model of neuropathic pain, von Frey paw withdrawal threshold; format: in vivo, mouse
# Method: To determine whether psilocybin may alleviate chronic neuropathic pain, various doses of psilocybin were tested in a mouse model of chronic constriction injury (CCI).
# Male C57BL/6 mice (age 6-7 weeks, source: Charles River UK) were housed in standard caging in groups of 2-4, with free access to food (5CR4, Purina) and water (except during placement in the test box) on a 12/12 light/dark cycle.
# All animals underwent behavioral testing of mechanical allodynia on three consecutive days (Day −2, Day−1 and Day 0) prior to surgery in order to determine the baseline withdrawal thresholds. Briefly, Static mechanical (tactile) allodynia was assessed by measurement of withdrawal threshold using calibrated (force; g) von-Frey monofilaments (Touch-Test Sensory Evaluator; Scientific Marketing Associates) applied to the plantar surface of the hind-paw. The animals were placed in individual Perspex boxes on a raised metal mesh for 30-40 minutes before the test. A series of graduated von Frey hairs (0.07, 0.16, 0.4, 0.6 and 1 g) was applied in sequence with a protocol of 1 second on 1 second off, repeated 10 times. Each hair was applied perpendicularly to the center of the ventral surface of the paw until it slightly bends. The force applied to the hind-paw of the animal to induce 5 responses out of 10 trials was recorded as paw withdrawal threshold (PWT). Three baseline paw withdrawal thresholds were taken on ipsilateral paws. The mean of the last two readings used as the baseline withdrawal threshold.
# Subsequently, surgery was performed under anesthesia (Isoflurane mixed with oxygen, 3:1, 2 L/min) to tie three loose ligatures of prolene (7-0, Ethicon) around the sciatic nerve, with 1 mm spacing between each. The nerve was then returned below the muscle layer and the wound closed using absorbable sutures (Vicryl).
# Following recovery from surgery, Von Frey assessment of mechanical allodynia was taken on days 19 and 22. Animals were then ranked and randomized (based on a Latin square design) to treatment groups according to the percentage change (compared to pre-surgery baseline) of the mean mechanical withdrawal threshold observed on days 19 and 22. Only those animals showing a PWT percentage change of >50% from pre-surgery baseline were included in the study.
# On day 23, the animals were dosed with psilocybin (1, 3 or 10 mg/kg by intraperitoneal injection) or vehicle (10 mL/kg by intraperitoneal injection). Nerve pain medication Pregabalin (15 mg/kg administered orally) was also used as a positive control. Allodynia was then assessed at 0.5, 4 and 24 hours post-treatment timepoint (PTT).
smiles,measurement,setting,value
"CN(C)CCc1c[nH]c2cccc(OP(=O)(O)O)c12 [Psilocybin, psilocybin]",Haloperidol-induced catalepsy (significantly reduced),mice; 1 mg/kg,90 s
same,Start of positive effect on catalepsy after haloperidol,"mice; 1 mg/kg, FIG. 18 (24 hours after administration)",135 min
same,Time after haloperidol injection of decrease in descent latency,"mice; 1 mg/kg, one hour prior to the test",270 min
same,Time after haloperidol from which descent latency is significantly decreased,"mice; 3 mg/kg, 1 week prior to the test",≥ 224 min
same,Haloperidol-induced catalepsy (significantly reduced),mice; 3 mg/kg,60 s
same,"Start of reduction in descent latency after haloperidol, lasting to 270 minutes","mice; 3 mg/kg, FIG. 18 (24 hours after administration)",45 min
same,Time after haloperidol injection from which descent latency is significantly decreased,"mice; 3 mg/kg, one hour prior to the test",≥ 225 min
same,Haloperidol-induced catalepsy (significantly reduced),mice; 10 mg/kg,75 s
same,Start of positive effect on catalepsy after haloperidol,"mice; 10 mg/kg, FIG. 18 (24 hours after administration)",90 min
same,Time after haloperidol injection from which descent latency is significantly decreased,"mice; 10 mg/kg, one hour prior to the test",≥ 180 min
same,"Force-induced paw withdrawal, mean","male C57BL/6 mice; 1 mg/kg IP group, D19-22 Neuropathic baseline (before dosing)",0.16 g
same,"Force-induced paw withdrawal, mean","male C57BL/6 mice; 1 mg/kg IP group, D-2 D-1 Baseline (before surgery and dosing)",0.72 g
same,"Force-induced paw withdrawal, mean","male C57BL/6 mice; 1 mg/kg IP, D23 0.5 hours PTT",0.16 g
same,"Force-induced paw withdrawal, mean","male C57BL/6 mice; 1 mg/kg IP, D23 4 hours PTT",0.16 g
same,"Force-induced paw withdrawal, mean","male C57BL/6 mice; 1 mg/kg IP, D24 24 hours PTT",0.15 g
same,"Force-induced paw withdrawal, mean","male C57BL/6 mice; 3 mg/kg IP group, D19-22 Neuropathic baseline (before dosing)",0.16 g
same,"Force-induced paw withdrawal, mean","male C57BL/6 mice; 3 mg/kg IP group, D-2 D-1 Baseline (before surgery and dosing)",0.68 g
same,"Force-induced paw withdrawal, mean","male C57BL/6 mice; 3 mg/kg IP, D23 0.5 hours PTT",0.22 g
same,"Force-induced paw withdrawal, mean","male C57BL/6 mice; 3 mg/kg IP, D23 4 hours PTT",0.15 g
same,"Force-induced paw withdrawal, mean","male C57BL/6 mice; 3 mg/kg IP, D24 24 hours PTT",0.25 g
same,"Force-induced paw withdrawal, mean","male C57BL/6 mice; 10 mg/kg IP group, D19-22 Neuropathic baseline (before dosing)",0.17 g
same,"Force-induced paw withdrawal, mean","male C57BL/6 mice; 10 mg/kg IP group, D-2 D-1 Baseline (before surgery and dosing)",0.79 g
same,"Force-induced paw withdrawal, mean","male C57BL/6 mice; 10 mg/kg IP, D23 0.5 hours PTT",0.38* g
same,"Force-induced paw withdrawal, mean","male C57BL/6 mice; 10 mg/kg IP, D23 4 hours PTT",0.51* g
same,"Force-induced paw withdrawal, mean","male C57BL/6 mice; 10 mg/kg IP, D24 24 hours PTT",0.25 g
